The source of these data is publication PMC12748989 (Nature Communications, 2025).

Ends that are not written are not given here.

One assay concerns MCF10A cells. As to conditions: 24 h.
The next assay relates to MCF7 cells. As to conditions: 24 h.
The next assay has as its system TamR3 cells. As to conditions: 24 h.
For the next assay, the system named is PBMC. As to conditions: 12.5 µM.

Turning to LLQWLLKRLKAK-NH2 [peptide 11], the IC50 with MCF10A cells stood at 16 µM; in the assay on MCF7 cells, 11.5 µM; in the assay on TamR3 cells, 11.4 µM.

Turning to TLLTAIVKLFLK-NH2 [peptide 57], the 50% inhibitory concentration (IC50) stood at 14.9 µM in the assay on MCF10A cells, 25 µM in the assay on MCF7 cells and 18.1 µM in the assay on TamR3 cells.

Regarding `CC[C@H](C)[C@H](N)C(=O)N[C@@H](CC(N)=O)C(=O)N[C@@H](CC(C)C)C(=O)N[C@@H](CCCCN)C(=O)N[C@@H](C)C(=O)N[C@@H](CC(C)C)C(=O)N[C@@H](C)C(=O)N[C@@H](C)C(=O)N[C@@H](CC(C)C)C(=O)N[C@@H](C)C(=O)N[C@@H](CCCCN)C(=O)N[C@@H](CCCCN)C(=O)N[C@H](C(=O)N[C@@H](CC(C)C)C(N)=O)[C@@H](C)CC` [Mastoparan, reference compound], the IC50 came to 16.9 µM in the assay on MCF10A cells, 21.8 µM in the assay with MCF7 cells and 18.4 µM in the assay with TamR3 cells.

In the case of IILKKLLDFILK-NH2 [peptide 29], the IC50 with MCF10A cells was determined as 16.8 µM; in the assay on MCF7 cells it was 16.4 µM; in the assay with TamR3 cells it was 14.6 µM.

Regarding `CC[C@H](C)[C@H](N)C(=O)N[C@@H](CC(N)=O)C(=O)N[C@@H](CC(C)C)C(=O)N[C@@H](CCCCN)C(=O)N[C@@H](C)C(=O)N[C@@H](CC(C)C)C(=O)N[C@@H](C)C(=O)N[C@@H](C)C(=O)N[C@@H](Cc1c[nH]cn1)C(=O)N[C@@H](C)C(=O)N[C@@H](CCCCN)C(=O)N[C@@H](CCCCN)C(=O)N[C@H](C(=O)N[C@@H](CC(C)C)C(N)=O)[C@@H](C)CC` [H9], in the assay with MDA-MB-231 cells, the “Average (percentage cell inhibition), Dmastoparan MDA-MB231 12.5uM” value is reported as 18.6976%. Moreover, in the assay with PBMC, the “Average (percentage cell inhibition), Mastoparan PBMC” value is -4.349%.

As for `CC[C@H](C)[C@H](N)C(=O)N[C@@H](CC(N)=O)C(=O)N[C@@H](CC(C)C)C(=O)N[C@@H](CCCCN)C(=O)N[C@@H](C)C(=O)N[C@@H](CC(C)C)C(=O)N[C@@H](C)C(=O)N[C@@H](C)C(=O)N[C@@H](CC(C)C)C(=O)N[C@@H](C)C(=O)N[C@@H](CCCCN)C(=O)N[C@@H](CCCCN)C(=O)N[C@H](C(=O)N[C@@H](CC(C)C)C(N)=O)[C@@H](C)O` [T13], the “Average (percentage cell inhibition), Dmastoparan MDA-MB231 12.5uM” value in the assay with MDA-MB-231 cells amounted to 38.2444%. Also, the “Average (percentage cell inhibition), Mastoparan PBMC” value in the assay on PBMC came out at 3.307%.

Turning to `CC[C@H](C)[C@H](N)C(=O)N[C@@H](CC(N)=O)C(=O)N[C@@H](CC(C)C)C(=O)N[C@@H](CCCCN)C(=O)N[C@@H](C)C(=O)N[C@@H](CC(C)C)C(=O)N[C@@H](C)C(=O)N[C@@H](C)C(=O)N[C@@H](CC(C)C)C(=O)N[C@@H](C)C(=O)N[C@@H](CCCCN)C(=O)N[C@@H](CCCCN)C(=O)N[C@@H](Cc1c[nH]cn1)C(=O)N[C@@H](CC(C)C)C(N)=O` [H13], the “Average (percentage cell inhibition), Dmastoparan MDA-MB231 12.5uM” value in the assay with MDA-MB-231 cells is recorded as 24.5783%. Besides, in the assay with PBMC, the “Average (percentage cell inhibition), Mastoparan PBMC” value is listed as -0.416%.

Take `CC[C@H](C)[C@H](N)C(=O)N[C@@H](CC(N)=O)C(=O)N[C@@H](CC(C)C)C(=O)N[C@@H](CCCCN)C(=O)N[C@@H](C)C(=O)N[C@@H](CC(C)C)C(=O)N[C@@H](C)C(=O)N[C@@H](C)C(=O)N[C@@H](C)C(=O)N[C@@H](C)C(=O)N[C@@H](CCCCN)C(=O)N[C@@H](CCCCN)C(=O)N[C@H](C(=O)N[C@@H](CC(C)C)C(N)=O)[C@@H](C)CC` [A9]: the “Average (percentage cell inhibition), Dmastoparan MDA-MB231 12.5uM” value in the assay with MDA-MB-231 cells was 23.1985%. Also, the “Average (percentage cell inhibition), Mastoparan PBMC” value in the assay with PBMC is given as -3.746%.

As for `CC[C@H](C)[C@H](N)C(=O)N[C@@H](CC(N)=O)C(=O)N[C@@H](CC(C)C)C(=O)N[C@@H](CCCCN)C(=O)N[C@@H](C)C(=O)N[C@@H](CC(C)C)C(=O)N[C@@H](CCCNC(=N)N)C(=O)N[C@@H](C)C(=O)N[C@@H](CC(C)C)C(=O)N[C@@H](C)C(=O)N[C@@H](CCCCN)C(=O)N[C@@H](CCCCN)C(=O)N[C@H](C(=O)N[C@@H](CC(C)C)C(N)=O)[C@@H](C)CC` [R7], the “Average (percentage cell inhibition), Dmastoparan MDA-MB231 12.5uM” value with MDA-MB-231 cells was determined as 35.9182%. The “Average (percentage cell inhibition), Mastoparan PBMC” value in the assay on PBMC is given as 3.182%.

Regarding `CC[C@H](C)[C@H](N)C(=O)N[C@@H](CC(N)=O)C(=O)N[C@@H](CC(C)C)C(=O)N[C@@H](CCCCN)C(=O)N[C@@H](C)C(=O)N[C@@H](CC(C)C)C(=O)N[C@@H](C)C(=O)N[C@@H](C)C(=O)N[C@@H](CC(C)C)C(=O)N[C@@H](C)C(=O)N[C@@H](CCCCN)C(=O)N[C@@H](CCCCN)C(=O)N[C@H](C(=O)N[C@@H](CC(C)C)C(N)=O)[C@@H](C)CC` [Lab Mastoparan L, reference compound], the “Average (percentage cell inhibition), Dmastoparan MDA-MB231 12.5uM” value with MDA-MB-231 cells came out at 41.709%. Further, the “Average (percentage cell inhibition), Mastoparan PBMC” value in the assay on PBMC was 12.353%.

`CC[C@H](C)[C@H](N)C(=O)N[C@@H](CC(N)=O)C(=O)N[C@@H](CC(C)C)C(=O)N[C@@H](CCCCN)C(=O)N[C@@H](C)C(=O)N[C@@H](CC(C)C)C(=O)N[C@@H](C)C(=O)N[C@@H](C)C(=O)N[C@@H](CCC(=O)O)C(=O)N[C@@H](C)C(=O)N[C@@H](CCCCN)C(=O)N[C@@H](CCCCN)C(=O)N[C@H](C(=O)N[C@@H](CC(C)C)C(N)=O)[C@@H](C)CC` [E9]: the “Average (percentage cell inhibition), Dmastoparan MDA-MB231 12.5uM” value in the assay with MDA-MB-231 cells was 4.314%. In addition, the “Average (percentage cell inhibition), Mastoparan PBMC” value in the assay on PBMC is 0.4268%.

Take `CC[C@H](C)[C@H](N)C(=O)N[C@@H](CCCNC(=N)N)C(=O)N[C@@H](CC(C)C)C(=O)N[C@@H](CCCCN)C(=O)N[C@@H](C)C(=O)N[C@@H](CC(C)C)C(=O)N[C@@H](C)C(=O)N[C@@H](C)C(=O)N[C@@H](CC(C)C)C(=O)N[C@@H](C)C(=O)N[C@@H](CCCCN)C(=O)N[C@@H](CCCCN)C(=O)N[C@H](C(=O)N[C@@H](CC(C)C)C(N)=O)[C@@H](C)CC` [R2]: the “Average (percentage cell inhibition), Dmastoparan MDA-MB231 12.5uM” value in the assay with MDA-MB-231 cells came out at 40.227%. In addition, the “Average (percentage cell inhibition), Mastoparan PBMC” value with PBMC turned out to be 6.823%.

Turning to `CC[C@H](C)[C@H](N)C(=O)N[C@@H](CC(N)=O)C(=O)N[C@@H](CC(C)C)C(=O)N[C@@H](CCCCN)C(=O)N[C@@H](C)C(=O)N[C@@H](CC(C)C)C(=O)N[C@@H](C)C(=O)N[C@@H](C)C(=O)N[C@@H](CC(C)C)C(=O)N[C@@H](C)C(=O)N[C@H](C(=O)N[C@@H](CCCCN)C(=O)N[C@H](C(=O)N[C@@H](CC(C)C)C(N)=O)[C@@H](C)CC)[C@@H](C)O` [T11], the “Average (percentage cell inhibition), Dmastoparan MDA-MB231 12.5uM” value with MDA-MB-231 cells turned out to be 32.1267%. Besides, in the assay with PBMC, the “Average (percentage cell inhibition), Mastoparan PBMC” value is recorded as 10.2886%.

Broadly, the IC50 is the concentration at which inhibition is half-maximal. A higher IC50 goes with weaker potency in that assay.
